According to PubChem BioAssay AID248 (DTP/NCI, 2004):
Several values for one entry are separate records, joined by “and”; a condition that tells them apart may be missing. Identical values can stand only once. Toxic doses and inconclusive results are not listed.

Test system: L1210 leukemia ip in BDF1 mice, survival T/C
Assay: NCI In Vivo Anticancer Drug Screen. Data for tumor model L1210 Leukemia (intraperitoneal) in B6D2F1 (BDF1) mice
Conditions: endpoint: mean survival time, higher = longer survival
Method in brief: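 Value reflects the ratio of survival in compound-treated mice to survival in vehicle-treated controls, with both groups carrying the same transplanted tumor.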

For OC(CBr)C(O)C(O)C(O)CBr (configuration not stated), the T/C (dose: 15.6 mg/kg/injection, schedule: Q03HX008 (ip), vehicle: carboxymethylcellulose (CMC)) was 90 % of control, the T/C (dose: 15.6 mg/kg/injection, schedule: Q03HX024 (ip), vehicle: carboxymethylcellulose (CMC)) was 91 % of control and the T/C (dose: 31.2 mg/kg/injection, schedule: Q#A X034 (ip), vehicle: carboxymethylcellulose (CMC)) was 99 % of control. For the same compound, the T/C (dose: 31.25 mg/kg/injection, schedule: Q01DX Z (ip), vehicle: carboxymethylcellulose (CMC)) was 94 % of control, the T/C (dose: 31.3 mg/kg/injection, schedule: Q03HX008 (ip), vehicle: carboxymethylcellulose (CMC)) was 96 % of control and the T/C (dose: 31.3 mg/kg/injection, schedule: Q03HX024 (ip), vehicle: carboxymethylcellulose (CMC)) was 93 % of control. For the same compound, the T/C (dose: 62.5 mg/kg/injection, schedule: Q01DX001 (ip), vehicle: carboxymethylcellulose (CMC)) was 101 % of control, the T/C (dose: 62.5 mg/kg/injection, schedule: Q01DX009 (ip), vehicle: carboxymethylcellulose (CMC)) was 104 % of control and the T/C (dose: 62.5 mg/kg/injection, schedule: Q01DX017 (ip), vehicle: carboxymethylcellulose (CMC)) was 98 % of control. For the same compound, the T/C (dose: 62.5 mg/kg/injection, schedule: Q03HX008 (ip), vehicle: carboxymethylcellulose (CMC)) was 97 % of control and 98 % of control, the T/C (dose: 62.5 mg/kg/injection, schedule: Q03HX024 (ip), vehicle: carboxymethylcellulose (CMC)) was 87 % of control and the T/C (dose: 62.5 mg/kg/injection, schedule: Q#A X034 (ip), vehicle: carboxymethylcellulose (CMC)) was 95 % of control. The T/C (dose: 63.0 mg/kg/injection, schedule: Q01DX Z (ip), vehicle: carboxymethylcellulose (CMC)) was 103 % of control and 94 % of control, the T/C (dose: 71.0 mg/kg/injection, schedule: Q01DX009 (oral), vehicle: carboxymethylcellulose (CMC)) was 97 % of control and the T/C (dose: 100.0 mg/kg/injection, schedule: Q01DX001 (ip), vehicle: saline) was 98 % of control. The T/C (dose: 100.0 mg/kg/injection, schedule: Q01DX009 (ip), vehicle: other) was 103 % of control, the T/C (dose: 106.0 mg/kg/injection, schedule: Q01DX009 (ip), vehicle: saline) was 100 % of control and the T/C (dose: 107.0 mg/kg/injection, schedule: Q## X006 (oral), vehicle: carboxymethylcellulose (CMC)) was 94 % of control. The T/C (dose: 120.0 mg/kg/injection, schedule: Q01DX001 (ip), vehicle: carboxymethylcellulose (CMC)) was 97 % of control, the T/C (dose: 125.0 mg/kg/injection, schedule: Q01DX001 (ip), vehicle: carboxymethylcellulose (CMC)) was 95 % of control and 92 % of control and the T/C (dose: 125.0 mg/kg/injection, schedule: Q01DX009 (ip), vehicle: carboxymethylcellulose (CMC)) was 104 % of control. The T/C (dose: 125.0 mg/kg/injection, schedule: Q01DX015 (ip), vehicle: saline) was 102 % of control, the T/C (dose: 125.0 mg/kg/injection, schedule: Q01DX Z (ip), vehicle: carboxymethylcellulose (CMC)) was 98 % of control and 92 % of control and the T/C (dose: 125.0 mg/kg/injection, schedule: Q02DX005 (ip), vehicle: carboxymethylcellulose (CMC)) was 100 % of control. For the same compound, the T/C (dose: 125.0 mg/kg/injection, schedule: Q02DX008 (ip), vehicle: carboxymethylcellulose (CMC)) was 95 % of control, the T/C (dose: 125.0 mg/kg/injection, schedule: Q03HX008 (ip), vehicle: carboxymethylcellulose (CMC)) was 98 % of control and the T/C (dose: 125.0 mg/kg/injection, schedule: Q03HX024 (ip), vehicle: carboxymethylcellulose (CMC)) was 105 % of control. The T/C (dose: 125.0 mg/kg/injection, schedule: Q04DX003 (ip), vehicle: carboxymethylcellulose (CMC)) was 87 % of control, the T/C (dose: 160.0 mg/kg/injection, schedule: Q01DX009 (ip), vehicle: saline) was 102 % of control and the T/C (dose: 160.0 mg/kg/injection, schedule: Q## X006 (oral), vehicle: carboxymethylcellulose (CMC)) was 95 % of control. The T/C (dose: 177.0 mg/kg/injection, schedule: Q01DX009 (ip), vehicle: acetone) was 113 % of control, the T/C (dose: 200.0 mg/kg/injection, schedule: Q01DX001 (ip), vehicle: other) was 97 % of control and the T/C (dose: 200.0 mg/kg/injection, schedule: Q01DX001 (ip), vehicle: saline) was 96 % of control. The T/C (dose: 200.0 mg/kg/injection, schedule: Q01DX009 (ip), vehicle: other) was 105 % of control, the T/C (dose: 240.0 mg/kg/injection, schedule: Q01DX009 (ip), vehicle: saline) was 104 % of control and the T/C (dose: 240.0 mg/kg/injection, schedule: Q## X003 (oral), vehicle: carboxymethylcellulose (CMC)) was 96 % of control. For the same compound, the T/C (dose: 250.0 mg/kg/injection, schedule: Q01DX001 (ip), vehicle: carboxymethylcellulose (CMC)) was 95 % of control and 104 % of control, the T/C (dose: 250.0 mg/kg/injection, schedule: Q01DX009 (ip), vehicle: carboxymethylcellulose (CMC)) was 98 % of control and the T/C (dose: 250.0 mg/kg/injection, schedule: Q01DX015 (ip), vehicle: saline) was 110 % of control. For the same compound, the T/C (dose: 250.0 mg/kg/injection, schedule: Q01DX Z (ip), vehicle: carboxymethylcellulose (CMC)) was 93 % of control and 106 % of control, the T/C (dose: 250.0 mg/kg/injection, schedule: Q02DX005 (ip), vehicle: carboxymethylcellulose (CMC)) was 95 % of control and the T/C (dose: 250.0 mg/kg/injection, schedule: Q04DX003 (ip), vehicle: carboxymethylcellulose (CMC)) was 97 % of control. The T/C (dose: 250.0 mg/kg/injection, schedule: Q#A X034 (ip), vehicle: carboxymethylcellulose (CMC)) was 98 % of control, the T/C (dose: 266.0 mg/kg/injection, schedule: Q01DX001 (ip), vehicle: acetone) was 189 % of control and the T/C (dose: 266.0 mg/kg/injection, schedule: Q01DX001 (ip), vehicle: saline) was 102 % of control. For the same compound, the T/C (dose: 266.0 mg/kg/injection, schedule: Q01DX009 (ip), vehicle: acetone) was 110 % of control, the T/C (dose: 266.0 mg/kg/injection, schedule: Q04DX003 (ip), vehicle: acetone) was 108 % of control and the T/C (dose: 266.0 mg/kg/injection, schedule: Q04DX003 (ip), vehicle: saline) was 100 % of control and 98 % of control. The T/C (dose: 266.0 mg/kg/injection, schedule: Q08DX002 (ip), vehicle: acetone) was 102 % of control, the T/C (dose: 266.0 mg/kg/injection, schedule: Q08DX002 (ip), vehicle: saline) was 100 % of control and the T/C (dose: 360.0 mg/kg/injection, schedule: Q01DX009 (ip), vehicle: saline) was 104 % of control. The T/C (dose: 400.0 mg/kg/injection, schedule: Q01DX001 (ip), vehicle: acetone) was 110 % of control, the T/C (dose: 400.0 mg/kg/injection, schedule: Q01DX001 (ip), vehicle: other) was 105 % of control and the T/C (dose: 400.0 mg/kg/injection, schedule: Q01DX001 (ip), vehicle: saline) was 101 % of control and 104 % of control. For the same compound, the T/C (dose: 400.0 mg/kg/injection, schedule: Q01DX009 (ip), vehicle: acetone) was 113 % of control, the T/C (dose: 400.0 mg/kg/injection, schedule: Q01DX009 (ip), vehicle: other) was 97 % of control and the T/C (dose: 400.0 mg/kg/injection, schedule: Q04DX003 (ip), vehicle: acetone) was 112 % of control. For the same compound, the T/C (dose: 400.0 mg/kg/injection, schedule: Q04DX003 (ip), vehicle: saline) was 102 % of control, the T/C (dose: 400.0 mg/kg/injection, schedule: Q08DX002 (ip), vehicle: acetone) was 103 % of control and the T/C (dose: 400.0 mg/kg/injection, schedule: Q08DX002 (ip), vehicle: saline) was 102 % of control. The T/C (dose: 480.0 mg/kg/injection, schedule: Q01DX009 (sc), vehicle: carboxymethylcellulose (CMC)) was 93 % of control, the T/C (dose: 480.0 mg/kg/injection, schedule: Q## X008 (ip), vehicle: carboxymethylcellulose (CMC)) was 94 % of control and the T/C (dose: 500.0 mg/kg/injection, schedule: Q01DX001 (ip), vehicle: carboxymethylcellulose (CMC)) was 96 % of control and 100 % of control and 93 % of control. For the same compound, the T/C (dose: 500.0 mg/kg/injection, schedule: Q01DX009 (ip), vehicle: carboxymethylcellulose (CMC)) was 105 % of control, the T/C (dose: 500.0 mg/kg/injection, schedule: Q01DX015 (ip), vehicle: saline) was 110 % of control and the T/C (dose: 500.0 mg/kg/injection, schedule: Q01DX Z (ip), vehicle: carboxymethylcellulose (CMC)) was 94 % of control and 104 % of control. The T/C (dose: 500.0 mg/kg/injection, schedule: Q02DX005 (ip), vehicle: carboxymethylcellulose (CMC)) was 108 % of control, the T/C (dose: 500.0 mg/kg/injection, schedule: Q04DX003 (ip), vehicle: carboxymethylcellulose (CMC)) was 95 % of control and the T/C (dose: 540.0 mg/kg/injection, schedule: Q01DX009 (ip), vehicle: saline) was 111 % of control. The T/C (dose: 600.0 mg/kg/injection, schedule: Q01DX001 (ip), vehicle: acetone) was 100 % of control, the T/C (dose: 600.0 mg/kg/injection, schedule: Q01DX001 (ip), vehicle: saline) was 104 % of control and the T/C (dose: 600.0 mg/kg/injection, schedule: Q01DX009 (ip), vehicle: acetone) was 113 % of control. The T/C (dose: 600.0 mg/kg/injection, schedule: Q04DX003 (ip), vehicle: acetone) was 123 % of control, the T/C (dose: 600.0 mg/kg/injection, schedule: Q04DX003 (ip), vehicle: saline) was 102 % of control and the T/C (dose: 600.0 mg/kg/injection, schedule: Q08DX002 (ip), vehicle: acetone) was 103 % of control. The T/C (dose: 600.0 mg/kg/injection, schedule: Q08DX002 (ip), vehicle: saline) was 102 % of control, the T/C (dose: 800.0 mg/kg/injection, schedule: Q01DX001 (ip), vehicle: other) was 109 % of control and the T/C (dose: 900.0 mg/kg/injection, schedule: Q01DX001 (ip), vehicle: acetone) was 108 % of control. For the same compound, the T/C (dose: 900.0 mg/kg/injection, schedule: Q01DX001 (ip), vehicle: saline) was 105 % of control, the T/C (dose: 900.0 mg/kg/injection, schedule: Q04DX003 (ip), vehicle: acetone) was 100 % of control and the T/C (dose: 900.0 mg/kg/injection, schedule: Q04DX003 (ip), vehicle: saline) was 105 % of control. For the same compound, the T/C (dose: 900.0 mg/kg/injection, schedule: Q08DX002 (ip), vehicle: acetone) was 100 % of control, the T/C (dose: 900.0 mg/kg/injection, schedule: Q08DX002 (ip), vehicle: saline) was 94 % of control and the T/C (dose: 1000.0 mg/kg/injection, schedule: Q01DX001 (ip), vehicle: carboxymethylcellulose (CMC)) was 100 % of control and 104 % of control and 94 % of control. For the same compound, the T/C (dose: 1000.0 mg/kg/injection, schedule: Q01DX015 (ip), vehicle: saline) was 121 % of control, the T/C (dose: 1000.0 mg/kg/injection, schedule: Q04DX003 (ip), vehicle: carboxymethylcellulose (CMC)) was 113 % of control and the T/C (dose: 1440.0 mg/kg/injection, schedule: Q## X003 (oral), vehicle: carboxymethylcellulose (CMC)) was 96 % of control.
